Results on nine compounds are retold here after article PMC4782136 (Scientific Reports, 2016).

Structures are written as SMILES. Read-outs that look alike come from different tables or passages of the source. Residues, ends and D or L forms follow the SMILES beside them. *: point of attachment. Arachidoyl = CCCCCCCCCCCCCCCCCCCC(=O)*; Stearoyl = CCCCCCCCCCCCCCCCCC(=O)*; Palmitoyl = CCCCCCCCCCCCCCCC(=O)*

Broadly, the IC50 is the concentration that inhibits the measured activity by half.

Data set [1] concerns influenza A/Puerto Rico/8/34 (H1N1). To be noted: /Puerto Rico/8/34, 24 h.
A further data set can be described thus: in vitro. To be noted: dog.
The subject of data set [2] is influenza A/Puerto Rico/8/34 (H1N1). In words: microbe, parasite or virus in culture. To be noted: H1N1, MDCK, read-out: IC50 ± SD.
For data set [3], the system named is clinical isolate 690 (H3 subtype). As to the kind of experiment: microbe, parasite or virus in culture. The format is cell-based. To be noted: Influenza A virus, read-out: IC50 ± SD, H3 (690).
The test system of data set [4] is clinical isolate 699 (H3 subtype). As to the kind of experiment: microbe, parasite or virus in culture. The format is cell-based. Conditions: Influenza A virus, read-out: IC50 ± SD, H3 (699).
A further data set has as its system influenza B virus. As to the kind of experiment: microbe, parasite or virus in culture. Format: cell-based. Conditions: read-out: IC50 ± SD, B.
Data set [5] concerns influenza A/Aichi/2/68 (H3N2). As to the kind of experiment: microbe, parasite or virus in culture. Format: cell-based. Conditions: H3N2, read-out: IC50 ± SD, H3N2.

Consider `CCCCCCCCCCCCCCCC(=O)N[C@@H](CCCCN)C(=O)N[C@@H](CCCCN)C(=O)N[C@@H](Cc1c[nH]c2ccccc12)C(=O)N[C@@H](CCCCN)C(=O)NCC(=O)NCC(=O)NCC(=O)N[C@@H](C)C(=O)N[C@@H](CCCNC(=N)N)C(=O)N[C@@H](CC(C)C)C(=O)N1CCC[C@H]1C(=O)N[C@@H](CCCNC(=N)N)C(N)=O` [C16-Hp-GGG-Jp, C16-KKWKGGGARLPR] (Palmitoyl-KKWKGGGARLPR-NH2), for which, in data set [1], the IC50 is 8.05 ± 0.52 µM. Also, the CC50 at 48 h in “in vitro” is > 200 µM.

For the compound `CCCCCCCCCCCCCCCCCCCC(=O)N[C@@H](CCCCN)C(=O)N[C@@H](CCCCN)C(=O)N[C@@H](Cc1c[nH]c2ccccc12)C(=O)N[C@@H](CCCCN)C(=O)NCC(=O)NCC(=O)NCC(=O)N[C@@H](C)C(=O)N[C@@H](CCCNC(=N)N)C(=O)N[C@@H](CC(C)C)C(=O)N1CCC[C@H]1C(=O)N[C@@H](CCCNC(=N)N)C(N)=O` [C20-Hp-GGG-Jp, C20-KKWKGGGARLPR] (Arachidoyl-KKWKGGGARLPR-NH2), the CC50 is > 200 µM. In data set [1], inhibition was half-maximal at 5.22 ± 0.37 µM (IC50).

Regarding `CCCCCCCCCCCCCCCCCC(=O)N[C@@H](CCCCN)C(=O)N[C@@H](CCCCN)C(=O)N[C@@H](Cc1c[nH]c2ccccc12)C(=O)N[C@@H](CCCCN)C(=O)NCC(=O)NCC(=O)NCC(=O)N[C@@H](C)C(=O)N[C@@H](CCCNC(=N)N)C(=O)N[C@@H](CC(C)C)C(=O)N1CCC[C@H]1C(=O)N[C@@H](CCCNC(=N)N)C(N)=O` [C18-Hp-GGG-Jp, C18-KKWKGGGARLPR] (Stearoyl-KKWKGGGARLPR-NH2), in data set [1], 6.99 ± 2 µM corresponded to half-maximal inhibition (IC50). Also, the CC50 at 48 h in the data set “in vitro” is > 200 µM.

In data set [1], `CCCCCCCCCCCCCCCCCC(=O)N[C@@H](C)C(=O)N[C@@H](CCCNC(=N)N)C(=O)N[C@@H](CC(C)C)C(=O)N1CCC[C@H]1C(=O)N[C@@H](CCCNC(=N)N)C(=O)NCC(=O)NCC(=O)NCC(=O)N[C@@H](CCCCN)C(=O)N[C@@H](CCCCN)C(=O)N[C@@H](Cc1c[nH]c2ccccc12)C(=O)N[C@@H](CCCCN)C(N)=O` [C18-Jp-GGG-Hp, C18-ARLPRGGGKKWK] (Stearoyl-ARLPRGGGKKWK-NH2) displayed an IC50 of 5.09 ± 0.35 µM. In addition, in the data set “in vitro”, the CC50 at 48 h is > 200 µM.

Compound `CCCCCCCCCCCCCCCC(=O)N[C@@H](C)C(=O)N[C@@H](CCCNC(=N)N)C(=O)N[C@@H](CC(C)C)C(=O)N1CCC[C@H]1C(=O)N[C@@H](CCCNC(=N)N)C(=O)NCC(=O)NCC(=O)NCC(=O)N[C@@H](CCCCN)C(=O)N[C@@H](CCCCN)C(=O)N[C@@H](Cc1c[nH]c2ccccc12)C(=O)N[C@@H](CCCCN)C(N)=O` [C16-Jp-GGG-Hp, C16-ARLPRGGGKKWK] (Palmitoyl-ARLPRGGGKKWK-NH2) showed a 50% inhibitory concentration (IC50) in data set [1] of 6.79 ± 0.17 µM. Further, the CC50 at 48 h in the data set “in vitro” is > 200 µM.

For the compound `NC(=O)c1ncn([C@@H]2O[C@H](CO)[C@@H](O)[C@H]2O)n1` [Ribavirin, ribavirin], the IC50 in data set [2] turned out to be 12.85 ± 0.08 µM; in data set [3], 8.47 ± 3.01 µM; in data set [4] it was 4.92 ± 1.45 µM; with influenza B virus, 6.71 ± 0.93 µM; in data set [5], 24.9 ± 1.1 µM.

In data set [1], `CCCCCCCCCCCCCCCC(=O)N[C@@H](CCCCN)C(=O)N[C@@H](CCCCN)C(=O)N[C@@H](Cc1c[nH]c2ccccc12)C(=O)N[C@@H](CCCCN)C(=O)N[C@@H](C)C(=O)N[C@@H](CCCNC(=N)N)C(=O)N[C@@H](CC(C)C)C(=O)N1CCC[C@H]1C(=O)N[C@@H](CCCNC(=N)N)C(N)=O` [C16-Hp-Jp, C16-KKWKARLPR] (Palmitoyl-KKWKARLPR-NH2) displayed an IC50 of 2.48 ± 0.24 µM. Moreover, the CC50 at 48 h in “in vitro” is > 200 µM.

Regarding `CCCCCCCCCCCCCCCCCCCC(=O)N[C@@H](C)C(=O)N[C@@H](CCCNC(=N)N)C(=O)N[C@@H](CC(C)C)C(=O)N1CCC[C@H]1C(=O)N[C@@H](CCCNC(=N)N)C(=O)NCC(=O)NCC(=O)NCC(=O)N[C@@H](CCCCN)C(=O)N[C@@H](CCCCN)C(=O)N[C@@H](Cc1c[nH]c2ccccc12)C(=O)N[C@@H](CCCCN)C(N)=O` [C20-Jp-GGG-Hp, C20-ARLPRGGGKKWK] (Arachidoyl-ARLPRGGGKKWK-NH2), the CC50 was > 200 µM. Further, the IC50 in data set [1] is 4.04 ± 0.02 µM.

In data set [1], `CCCCCCCCCCCCCCCC(=O)N[C@@H](C)C(=O)N[C@@H](CCCNC(=N)N)C(=O)N[C@@H](CC(C)C)C(=O)N1CCC[C@H]1C(=O)N[C@@H](CCCNC(=N)N)C(=O)N[C@@H](CCCCN)C(=O)N[C@@H](CCCCN)C(=O)N[C@@H](Cc1c[nH]c2ccccc12)C(=O)N[C@@H](CCCCN)C(N)=O` [C16-Jp-Hp, C16-ARLPRKKWK] (Palmitoyl-ARLPRKKWK-NH2) registered an IC50 of 1.29 ± 0.4 µM. Moreover, in the data set “in vitro”, the CC50 at 48 h is > 200 µM.
